These results are taken from patent publication US20220211710A1, “COMPOSITIONS AND METHODS FOR TREATING CANCER WITH NUCLEOSIDE-METABOLISM MODULATORS” (The Regents of the University of California, priority 2019, published 2022).

Common to all, as to format: cell-based, human
Series [1] relates to SUIT2 SAMHD1 KO cells. In words: Cell Titer Glo proliferation, SUIT2 SAMHD1 knockout. The following applies: 72 h. The protocol:
(§1) For CellTiter-Glo analysis cells were plated at 1×10^3 cells/well in 50 μl/well in white opaque 384-well plates and treated as described. Following incubation 50 μl of CellTiter-Glo reagent (Diluted 1:5 in dH2O) was added to each well, plates incubated at room temperature for 5 m and luminescence was measured using a BioTek microplate luminescence reader. Proliferation rate normalized growth inhibition was calculated using the previously described GR metric (Hafner et al., 2016).

In series [2] the test system is HCC827 cells. In words: Cell Titer Glo proliferation, HCC827. As to conditions: for IC50: Homo sapiens, HCC827, 72 h, +10 μM dG. The protocol: as §1
The test system of another series is JURKAT cells. In words: Cell Titer Glo proliferation, JURKAT. As to the method: as §1
Series [3] deals with CCRF-CEM cells. In words: Cell Titer Glo proliferation, CCRF-CEM (YFP control). The protocol:
as §1

The subject of another series is MOLT-4 cells. In words: Cell Titer Glo proliferation, MOLT-4. The following applies: MOLT-4, 5 μM dG + 1 μM BCX-1777, 72 h. The protocol: as §1
The subject of a further series is B-ALL cell lines. The series is described as follows: Cell Titer Glo proliferation, B-ALL models. The following applies: 5 μM dG + 1 μM BCX-1777, 72 h. The protocol:
as §1

The test system of series [4] is CCRF-CEM SAMHD1 over-expressing cells. In words: Cell Titer Glo proliferation, CCRF-CEM SAMHD1 over-expressing. As to the method:
as §1

Series [5] deals with CCRF-CEM CDA over expressing cells. In words: Cell Titer Glo proliferation, CCRF-CEM CDA over-expressing. As to conditions: CCRF-CEM overexpressing CDA, 10 μM dG + 1 μM BCX-1777 + dC, 72 h. As to the method:
as §1

A further series deals with T-ALL cell lines. In words: Propidium iodide cell cycle analysis, T-ALL models. As to conditions: T-ALL models only, 5 μM dG + 1 μM BCX-1777, 24 h. The protocol:
(§2) Treated cells were washed with PBS and suspended in propidium iodide cell cycle staining solution (100 μg/ml propidium iodide; 20 μg/ml Ribonuclease A). 10,000 events were collected per sample. All flow cytometry data were acquired on five-laser BD LSRII, and analyzed using FlowJo software (Tree Star).

Series [6] relates to CCRF-CEM cells. In words: Immunoblot analysis, CCRF-CEM. As to conditions: 5 μM dG + 1 μM BCX-1777, 24 h. The protocol:
(§3) PBS-washed cell pellets were re-suspended in cold RIPA buffer supplemented with protease and phosphatase inhibitors. Protein lysates were normalized using BCA assay, diluted using RIPA and 4× laemmli loading dye, resolved on 4-12% Bis-Tris gels and electro-transferred to nitrocellulose membranes. After blocking with 5% nonfat milk in TBS+0.1% Tween-20 (TBS-T), membranes were incubated overnight in primary antibodies diluted (per manufacturers instructions) in 5% BSA in TBS-T. Membranes were washed with TBST-T and incubated with HRP-linked secondary antibodies prepared at a 1:2500 dilution in 5% nonfat dry milk in TBS-T. HRP was activated by incubating membranes with a mixture of SuperSignal Pico and SuperSignal Femto ECL reagents (100:1 ratio). Exposure of autoradiography film was used for detection.

Series [7] deals with NALM6 cells. The series is described as follows: Immunoblot analysis, NALM6. As to conditions: NALM6, 5 μM dG + 1 μM BCX-1777, 24 h. As to the method:
as §3

In series [8] the test system is CCRF-CEM SAMHD1 over-expressing cells. In words: Propidium iodide cell cycle analysis, CCRF-CEM SAMHD1 over-expressing. The following applies: CCRF-CEM expressing SAMHD1, 5 μM dG + 1 μM BCX-1777, 24 h. As to the method: as §2
Series [9] has as its system HCC827 cells. In words: Propidium iodide cell cycle analysis, HCC827. The following applies: HCC827, 5 μM dG + 1 μM BCX-1777, 24 h. The protocol: as §2
The test system of series [10] is HCC827 cells. In words: Crystal violet proliferation analysis, HCC827. As to conditions: HCC827, 5 μM dG + 1 μM PNPi, 7 d. The protocol: (§4) For crystal violet staining, cells were plated in 6-well cell culture plates at 1×10^4 cells/well and treated as described. Following treatment cells were fixed by incubating in 4% PFA in PBS for 15 m at room temperature. Plates were subsequently washed with PBS and stained with 0.1% crystal violet in H2O for 15 m at room temperature.

Series [11] has as its system SUIT2 cells. In words: Immunoblot analysis, SUIT2 wild-type. The following applies: SUIT2 parental, 5 μM dG + 1 μM forodesine, 24 h. As to the method: as §3
Series [12] has as its system SUIT2 SAMHD1 KO cells. In words: Immunoblot analysis, SUIT2 SAMHD1 knockout. As to the method: as §3
Series [13] relates to SUIT2 SAMHD1 KO cells. The series is described as follows: Crystal violet proliferation analysis, SUIT2 SAMHD1 knockout. The following applies: 7 d. As to the method:
as §4

The test system of series [14] is SAMHD1-deficient primary melanoma cell lines. The series is described as follows: Crystal violet proliferation analysis, SAMHD1-deficient primary melanoma models. The following applies: 1 μM PNPi + 10 μM dG, 7 d. The protocol: as §4
For series [15] the test system is unchanged. In words: Propidium iodide cell cycle analysis, SAMHD1-deficient primary melanoma models. The following applies: only SAMHD1-deficient melanoma models, 1 μM PNPi + 10 μM dG, 24 h. The protocol:
as §2

In series [16] the test system is NALM6 cells. In words: Cell Titer Glo proliferation, NALM6. As to conditions: NALM6 (SAMHD1-proficient), 72 h, +1 μM dG. The protocol:
as §1

The subject of series [17] is SUIT2 cells. The series is described as follows: Cell Titer Glo proliferation, SUIT2 wild-type. As to conditions: SUIT2 (SAMHD1-proficient), 72 h, +5 μM dG. As to the method:
as §1

Consider `NC(=S)N/N=C/c1ncccc1N` [3-AP], for which the “selectivity for SAMHD1 KO over WT cells” value in the series on SUIT2 SAMHD1 KO cells [1] (SUIT2 SAMHD1 KO vs WT) is “did not extend”.

In turn, `O=c1[nH]cnc2c([C@@H]3N[C@H](CO)[C@@H](O)[C@H]3O)c[nH]c12` [Forodesine] came in with an IC50 in the series with HCC827 cells [2] of 71 nM. For the same compound, the “anti-proliferative effect of the combination with dG” value with JURKAT cells (JURKAT, 5 μM dG + 1 μM BCX-1777, 72 h) was “eradicated”; in the series on CCRF-CEM cells [3] (CCRF-CEM, 5 μM dG + 1 μM BCX-1777, 72 h) it was “eradicated”; with MOLT-4 cells, “eradicated”; in the series on B-ALL cell lines, “unaffected”. Also, in the series with CCRF-CEM cells [3] (CCRF-CEM YFP, 10 μM dG + 1 μM BCX-1777 + 1 μM dC, 72 h), the “proliferation with dC supplementation” value is given as 60 % of control. The proliferation with CCRF-CEM cells [3] (CCRF-CEM YFP, 10 μM dG + 1 μM BCX-1777, 72 h) is reported as 1 % of control. In addition, the “anti-proliferative effect of PNPi” value in series [4] (CCRF-CEM expressing SAMHD1, 5 μM dG + 1 μM BCX-1777, 72 h) is listed as “completely resistant”. In series [5], the “dC rescue of the anti-proliferative effect of PNPi” value is on record as “prevented this rescue”. Further, the “percentage of sub-G1 cells (marker for cell death)” value in the series on T-ALL cell lines was “increase in the percentage of sub-G1 cells”. Further, the “DNA damage (H2AXS139 phosphorylation)” value in the series on CCRF-CEM cells [6] is “induced DNA damage”. The “apoptosis (cleaved caspase 3 accumulation)” value with CCRF-CEM cells [6] was “apoptosis”. In addition, the “DNA damage and apoptosis” value in the series with NALM6 cells [7] is given as “not in NALM6 cells”. Further, in series [8], the “cytotoxic effect of PNPi” value is reported as “completely resistant”. Further, the cell cycle result (in the series on HCC827 cells [9]; in series [15]) was “induced cell cycle arrest” each time. Besides, the “proliferation, crystal violet” value was “proliferation inhibition” in the series with HCC827 cells [10]; “could be prevented” in the series on SUIT2 SAMHD1 KO cells [13] (only SUIT2 SAMHD1 knockout cells, 5 μM dG + 1 μM PNPi); “selectively inhibited proliferation” in [14]. Moreover, in the series on SUIT2 cells [11], the “response to PNPi (DNA damage)” value is “completely resistant”. For the same compound, the “DNA damage in response to PNPi” value with SUIT2 SAMHD1 KO cells [12] (SUIT2 SAMHD1 knockout, 5 μM dG + 1 μM forodesine, 24 h) is “exhibited DNA damage”.

Consider `Cc1cn([C@H]2C[C@H](O)[C@@H](CO)O2)c(=O)[nH]c1=O` [thymidine], for which the “induction of pCHEK1S345 and pH2A.XS139” value in the series on SUIT2 SAMHD1 KO cells [12] (SUIT2 SAMHD1 KO vs WT, 100 μM dT, 24 h) is on record as “enhanced”.

As to `O=c1[nH]cnc2c(CN3C[C@H](CO)[C@@H](O)C3)c[nH]c12` [ulodesine], the “proliferation (ulodesine)” value in the series on HCC827 cells [2] (HCC827 (SAMHD1 deficient), 72 h, +5 μM dG) is recorded as “selectively impaired the proliferation”; in the series with JURKAT cells (JURKAT (SAMHD1 deficient), 72 h, +1 μM dG), “selectively impaired the proliferation”; in the series on CCRF-CEM cells [3] (CCRF-CEM (SAMHD1 deficient), 72 h, +1 μM dG), “selectively impaired the proliferation”; with NALM6 cells [16], “not exhibiting any activity”; in the series with SUIT2 cells [17] it was “not exhibiting any activity”; in the series on SUIT2 SAMHD1 KO cells [1] (SUIT2 CRISPR/Cas9 SAMHD1 knockout, +5 μM dG) it was “sensitive”. The “proliferation (ulodesine)” value in [4] (CCRF-CEM overexpressing SAMHD1, 72 h, +1 μM dG) was “resistance”. Further, the IC50 in the series on HCC827 cells [2] stood at 21 nM.

Regarding (R)-DI-82 [dCK inhibitor], in the series on SUIT2 SAMHD1 KO cells [12] (SUIT2 SAMHD1 knockout, 5 μM dG + 1 μM forodesine + 1 μM (R)-DI-82, 24 h), the “effect of dCK inhibitor on PNPi-induced DNA damage” value was “completely prevented”. Besides, the “effect of dCK inhibitor on PNPi anti-proliferative effect” value with SUIT2 SAMHD1 KO cells [13] (SUIT2 SAMHD1 knockout, 5 μM dG + 1 μM PNPi + 1 μM dCKi) is given as “completely blocked”.
